pIC50: −log10 of the molar value.

The target of this test is T1, human intracellular domain of KDR (VEGF Receptor-2) (Homo sapiens, UniProt P35968).
T1 construct: A fusion protein containing the intracellular domain (amino acids 793 to 1357) of the KDR and N-terminally tagged to GST; made in house; host or cells: Sf9 insect cells (baculovirus, pDEST20) for GST-KDR-cyt; E. coli BL21 (pGEX-4T-1) for GST-PLCγ
T1 sequence (P35968 794-1356 limits assumed): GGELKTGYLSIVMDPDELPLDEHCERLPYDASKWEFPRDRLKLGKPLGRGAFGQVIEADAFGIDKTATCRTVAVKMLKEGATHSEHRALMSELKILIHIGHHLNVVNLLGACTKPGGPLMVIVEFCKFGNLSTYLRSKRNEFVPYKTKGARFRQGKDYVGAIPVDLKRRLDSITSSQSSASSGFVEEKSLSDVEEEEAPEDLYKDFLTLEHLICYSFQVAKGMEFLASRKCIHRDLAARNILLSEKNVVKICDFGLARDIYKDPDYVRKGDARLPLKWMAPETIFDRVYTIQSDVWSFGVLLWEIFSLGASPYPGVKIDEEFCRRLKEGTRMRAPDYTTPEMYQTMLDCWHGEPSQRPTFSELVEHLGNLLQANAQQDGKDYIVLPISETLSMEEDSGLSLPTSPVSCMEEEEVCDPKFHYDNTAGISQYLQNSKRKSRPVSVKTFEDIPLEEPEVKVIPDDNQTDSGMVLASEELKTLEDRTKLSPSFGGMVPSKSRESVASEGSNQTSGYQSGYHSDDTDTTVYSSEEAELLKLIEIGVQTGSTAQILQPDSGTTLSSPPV
Put plainly: In vitro KDR kinase assay. As to conditions: IC50 as molar concentration; GST-KDR-cyt, substrate phospholipase Cγ, ATP 100 μM, 30 min room temperature, time-resolved fluorometry. It counts as biochemical. Summed up: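 Sf9-expressed, constitutively active human KDR intracellular domain, diluted 3000–3500 fold, incubated 30 min at room temperature with 100 μM ATP on phospholipase Cγ-coated wells in TBS pH 7.4 with Mg acetate, compounds up to 10 μM, 0.1% DMSO max. Phosphotyrosine detected by Eu-PY-20 time-resolved fluorescence; IC50 by linear interpolation around 50% inhibition.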
One may read the pIC50 as −log10 of the IC50, conventionally taken in molar units. A higher pIC50 goes with a small IC50. For the molecule `CCC(CC)CONC(=O)c1ccccc1NCc1ccncc1` [Compound 117, N-(2-Ethyl-butoxy)-2-[(pyridin-4-ylmethyl)-amino]-benzamide], the negative logarithm of the IC50 (pIC50) was 7.90.
The same measure for `CC(C)CCONC(=O)c1ccccc1NCc1ccncc1` [Compound 118, N-(3-Methyl-butoxy)-2-[(pyridin-4-ylmethyl)-amino]-benzamide]: 7.80.
For `O=C(NOCC1CCC1)c1ccccc1NCc1ccncc1` [Compound 119, N-Cyclobutylmethoxy-2-[(pyridin-4-ylmethyl)-amino]-benzamide] the value was 7.80; for `O=C(NOCC1CCCCC1)c1ccccc1NCc1ccncc1` [Compound 120, N-Cyclohexylmethoxy-2-[(pyridin-4-ylmethyl)-amino]-benzamide], 7.40.
For `O=C(NOCC1CCCCCC1)c1ccccc1NCc1ccncc1` [Compound 121, N-Cycloheptylmethoxy-2-[(pyridin-4-ylmethyl)-amino]-benzamide] the value was 7.30; for `O=C(NOCC1CCCCCCC1)c1ccccc1NCc1ccncc1` [Compound 122, N-Cyclooctylmethoxy-2-[(pyridin-4-ylmethyl)-amino]-benzamide], 8.10.
`CC(ONC(=O)c1ccccc1NCc1ccncc1)C1CCCC1` (stereo not drawn) [Compound 123, N-(1-Cyclopentyl-ethoxy)-2-[(pyridin-4-ylmethyl)-amino]-benzamide] showed a negative-log IC50 (pIC50) of 7.50.
For `O=C(NOC1CCCCC1)c1ccccc1NCc1ccncc1` [Compound 124, N-Cyclohexyloxy-2-[(pyridin-4-ylmethyl)-amino]-benzamide] the value was 7.20; for `O=C(NOCCC1CC1)c1ccccc1NCc1ccncc1` [Compound 125, N-(2-Cyclopropyl-ethoxy)-2-[(pyridin-4-ylmethyl)-amino]-benzamide], 7.40.
The same measure for `O=C(NOCCC1CCCC1)c1ccccc1NCc1ccncc1` [Compound 126, N-(2-Cyclopentyl-ethoxy)-2-[(pyridin-4-ylmethyl)-amino]-benzamide]: 8.10; for `O=C(NOCCCC1CCCC1)c1ccccc1NCc1ccncc1` [Compound 127, N-(3-Cyclopentyl-propoxy)-2-[(pyridin-4-ylmethyl)-amino]-benzamide]: 7.80.
Take `O=C(NOCC1CC=CCC1)c1ccccc1NCc1ccncc1` (stereo not drawn) [Compound 128, N-(Cyclohex-3-enylmethoxy)-2-[(pyridin-4-ylmethyl)-amino]-benzamide]: the negative-log IC50 (pIC50) was 7.80.
For `CC1CC=CCC1CONC(=O)c1ccccc1NCc1ccncc1` (stereo not drawn) [Compound 129, N-(6-Methyl-cyclohex-3-enylmethoxy)-2-[(pyridin-4-ylmethyl)-amino]-benzamide] the value was 8.00; for `O=C(NOC[C@H]1CC[C@H](CO)CC1)c1ccccc1NCc1ccncc1` [Compound 130, N-(trans-4-Hydroxymethyl-cyclohexylmethoxy)-2-[(pyridin-4-ylmethyl)-amino]-benzamide], 7.30; for `O=C(NOCC12CC3CC(CC(C3)C1)C2)c1ccccc1NCc1ccncc1` [Compound 132, N-(Adamantan-1-ylmethoxy)-2-[(pyridin-4-ylmethyl)-amino]-benzamide], 7.00.
For `CC1(C)[C@H]2CC[C@@H](CONC(=O)c3ccccc3NCc3ccncc3)[C@@H]1C2` [Compound 134] the value was 7.60; for `O=C(NOCC1CCCO1)c1ccccc1NCc1ccncc1` (stereo not drawn) [Compound 135, 2-[(Pyridin-4-ylmethyl)-amino]-N-(tetrahydro-furan-2-ylmethoxy)-benzamide], 7.10; for `O=C(NOCC1CCOCC1)c1ccccc1NCc1ccncc1` [Compound 141, 2-[(Pyridin-4-ylmethyl)-amino]-N-(tetrahydro-pyran-4-ylmethoxy)-benzamide], 7.30.
The same measure for `O=C(NOCC1CCCCO1)c1ccccc1NCc1ccncc1` (stereo not drawn) [Compound 142, 2-[(Pyridin-4-ylmethyl)-amino]-N-(tetrahydro-pyran-2-ylmethoxy)-benzamide]: 7.40.
The molecule `Cc1nc(CONC(=O)c2ccc(F)cc2NCc2ccncc2)cs1` [Compound 143, 4-Fluoro-N-(2-methyl-thiazol-4-ylmethoxy)-2-[(pyridin-4-ylmethyl)amino]-benzamide] showed a negative logarithm of the IC50 (pIC50) of 7.00.
On to `N#Cc1ccc(CONC(=O)c2cccnc2NCc2ccncc2)cc1` [Compound 156, N-(4-Cyano-benzyloxy)-2-[(pyridin-4-ylmethyl)-amino]-nicotinamide], for which the pIC50 was 7.20.
The same measure for `N#Cc1ccc(CONC(=O)c2cccnc2NCc2ccncc2)c(Cl)c1` [Compound 157, N-(2-Chloro-4-cyano-benzyloxy)-2-[(pyridin-4-ylmethyl)-amino]-nicotinamide]: 7.30; for `N#Cc1ccc(CONC(=O)c2cccnc2NCc2ccncc2)c(F)c1` [Compound 158, N-(4-Cyano-2-fluoro-benzyloxy)-2-[(pyridin-4-ylmethyl)-amino]-nicotinamide]: 7.10; for `O=C(NOCc1ccccc1I)c1cccnc1NCc1ccncc1` [Compound 160, N-(2-Iodo-benzyloxy)-2-[(pyridin-4-ylmethyl)-amino]-nicotinamide]: 7.20.
The same measure for `O=C(NOCc1ccccc1Br)c1cccnc1NCc1ccncc1` [Compound 161, N-(2-Bromo-benzyloxy)-2-[(pyridin-4-ylmethyl)-amino]-nicotinamide]: 7.20.
In turn, `COc1cc(C#N)ccc1CONC(=O)c1cccnc1NCc1ccncc1` [Compound 162, N-(4-Cyano-2-methoxy-benzyloxy)-2-[(pyridin-4-ylmethyl)-amino]-nicotinamide] gave a pIC50 of 7.20.
The same measure for `O=C(NOCC1CCCC1)c1cccnc1NCc1ccncc1` [Compound 164, N-Cyclopentylmethoxy-2-[(pyridin-4-ylmethyl)-amino]-nicotinamide]: 8.10; for `O=C(NCCCO)c1cc(CNc2ccccc2C(=O)NOCC2CCCC2)ccc1F` [Compound 188, 5-[(2-Cyclopentylmethoxycarbamoyl-phenylamino)-methyl]-2-fluoro-N-(3-hydroxypropyl)-benzamide]: 7.10; for `O=C(NOCc1ccc(F)cc1)c1ccccc1NCc1ccc2c(c1)CCO2` [Compound 195, 2-[(2,3-Dihydro-benzofuran-5-ylmethyl)-amino]-N-(4-fluoro-benzyloxy)-benzamide]: 7.10.
For `N#Cc1ccc(CONC(=O)c2ccccc2NCc2ccc3c(c2)CCO3)cc1` [Compound 196, N-(4-Cyano-benzyloxy)-2-[(2,3-dihydro-benzofuran-5-ylmethyl)-amino]-benzamide] the value was 7.10.
The same measure for `O=C(NOCc1ccccc1)c1ccccc1NCc1ccc2occc2c1` [Compound 198, 2-[(Benzofuran-5-ylmethyl)-amino]-N-benzyloxy-benzamide]: 7.20.
`O=C(NOCc1ccc(F)cc1)c1ccccc1NCc1ccc2occc2c1` [Compound 199, 2-[(Benzofuran-5-ylmethyl)-amino]-N-(4-fluoro-benzyloxy)-benzamide] showed a negative logarithm of the IC50 (pIC50) of 7.30.
For `O=C(NOCc1ccc(F)cc1)c1ccccc1NCc1ccnc(Br)c1` [Compound 204, 2-[(2-Bromo-pyridin-4-ylmethyl)-amino]-N-(4-fluoro-benzyloxy)benzamide] the value was 7.20.

These data come from patent US8034811B2, “Hydroxamic acid esters and pharmaceutical use thereof” (Leo Pharma A/S, priority 2003, dated 2011).
